Source: patent US10080729B2, “Composition for use in the treatment of intervertebral misalignment” (STAYBLE THERAPEUTICS AB, priority 2015, dated 2018)

Tests used:
[1] = system: nucleus pulposus of the L3-4 intervertebral disc; test: Flexion stiffness of the injected intervertebral disc (Example 1); format: in vivo, pig; settings: injected disc L 3-4; 0.2 mL of 1.34 mol/L lactic acid into nucleus pulposus; seven days after injection; mean ± SD; two pigs
Description: Access to the L4-5 intervertebral disc was obtained through a lateral incision between the lowest rib and the iliac crest on the left side of each pig. Thereafter, the L3-4 intervertebral disc was incised with a scalpel. […] The composition was injected in a single step at a single occasion.

[2] = system: nucleus pulposus of the L3-4 intervertebral disc; test: Dimension of the disc space after administration (Example 1); format: in vivo, pig; settings: injected disc L 3-4; 0.2 mL of 1.34 mol/L lactic acid; seven days after injection; mean ± SD
Description: 110. performing a cross-section of the discs and measuring the length (anterio-posterior direction) and the width (bilateral direction) of the disc space. Two pigs were anesthetized and placed on their right side. Access to the L4-5 intervertebral disc was obtained through a lateral incision between the lowest rib and the iliac crest on the left side of each pig. Thereafter, the L3-4 intervertebral disc was incised with a scalpel. […] The composition was injected in a single step at a single occasion. The intervertebral discs (L2-3, L3-4, L4-5) were cross-sectioned and the length of the disc space (anterio-posterior direction) and the width (bilateral direction) of the disc space were measured by calipers. In FIGS. 5 and 6, an intervertebral disc is schematically shown in cross-section. The intervertebral disc comprises the annulus fibrosus 10, and a disc space defined by the annulus fibrosus and comprising the nucleus pulposus 11.

pig = test: Tolerability and injection site observation (Example 1); format: in vivo; settings: two pigs
Description: Two pigs were anesthetized and placed on their right side. Access to the L4-5 intervertebral disc was obtained through a lateral incision between the lowest rib and the iliac crest on the left side of each pig. Thereafter, the L3-4 intervertebral disc was incised with a scalpel.
The composition was injected in a single step at a single occasion.
At harvest, the pigs were killed.
The injection site was observed by the naked eye. […] The segment of the vertebral column extending from the lumbar vertebra L2 to the sacral vertebra S1 was removed. The facet joints were removed, thus allowing full flexibility of the discs with no restraints from other structures.

[3] = system: intervertebral disc L1/2 to L3/4; test: Disc height on post-mortem X-ray (Example 3); format: in vivo, pig; settings: 120 or 240 mg/ml lactic acid + iohexol, 0.2 ml; both doses; 2, 28 and 84 days; FIG. 16
Text: (§1) Eleven pigs were anesthetized and placed on their right side. Through a lateral incision the discs to be injected were exposed. […] After 2, 28 or 84 days the pigs were killed and the lumbar spine was harvested. All musculature was removed as well as the facet joints and ligamentum flavum between the L1/2, L2/3 and L3/4 vertebrae. The following endpoints were used: • A. X-ray pictures were taken at the day of injection and at the harvest day to ascertain that the injection was correctly placed and to determine if the discs were radio-opaque after 2, 28 and 84 days. • B. The X-rays taken post-mortem were used to measure disc height. • C. The sectioned discs were photographed and the degree of fibrotisation was visually evaluated.

[4] = system: intervertebral disc L1/2 to L3/4; test: Visual evaluation of fibrotisation of the nucleus space (Example 3); format: in vivo, pig
Text: as §1

## CC(O)C(=O)O (stereo not drawn) [lactic acid]
[1]
  Difference in distance between transverse processes before and upon full lateral flexion: 0.3 ± 0.6 mm
[2]
  Average antero-posterior length of the disc space: 13.5 ± 1.3 mm
  Average bilateral width of the disc space: 4.0 ± 1.4 mm
pig; 0.2 mL of 1.34 mol/L lactic acid intradiscal, period of seven days until harvest
  Adverse reaction such as decreased mobility or vocalization: no adverse reaction
pig; at harvest seven days after injection
  Adverse reaction at the injection site (bleedings, inflammation or necrosis), naked eye: No adverse reaction at the injection site
[3]
  Disc height, discs injected with lactic acid versus placebo (X-ray): no difference in height
[4]; 84 days after injection, some discs, FIG. 17a
  Fibrotisation of the nucleus space: fibrosis was close to complete
[4]; after 2 days, 120 or 240 mg/ml lactic acid, 0.2 ml, some discs
  Fibrotisation of the nucleus space: tendency to fibrotisation
[4]; after 28 days, 120 or 240 mg/ml lactic acid, 0.2 ml
  Fibrotisation of the nucleus space: fibrotisation was evident
